Measurements reported in PMC6989399, “A drug library screen identifies Carbenoxolone as novel FOXO inhibitor that overcomes FOXO3-mediated chemoprotection in high-stage neuroblastoma” (Oncogene, 2019).

Assays:
FOXO3-DBD [1] = biological target: FOXO3-DBD (Homo sapiens, UniProt O43524); experiment: competitive fluorescence polarization (displacement of IRE-FAM oligonucleotide), confirmed by FAM-EMSA; format: binding
FOXO4-DBD = FOXO4-DBD (Homo sapiens, UniProt P98177); experiment: competitive fluorescence polarization (displacement of IRE-FAM oligonucleotide), […] CBX; format: binding
FOXO4-DBD, sequence (P98177 82-207): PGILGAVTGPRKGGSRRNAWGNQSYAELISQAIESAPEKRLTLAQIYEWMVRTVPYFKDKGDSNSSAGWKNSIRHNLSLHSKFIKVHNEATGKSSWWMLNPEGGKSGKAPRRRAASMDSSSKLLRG

FOXO6-DBD = FOXO6-DBD (Homo sapiens, UniProt A8MYZ6); experiment: as above; format: binding
FOXO6-DBD, sequence (A8MYZ6 87-200): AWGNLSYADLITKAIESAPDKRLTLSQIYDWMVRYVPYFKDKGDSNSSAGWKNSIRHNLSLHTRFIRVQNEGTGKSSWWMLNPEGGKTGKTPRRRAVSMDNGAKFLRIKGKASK

FOXO3-DBD [2] = biological target: T1, FOXO3-DBD (Homo sapiens, UniProt O43524 156-269); experiment: fluorescence polarization; 5 nM IRE-FAM, 1-350 nM protein; FPA: 200 mM Tris pH 7.5, 100 mM NaCl, 1 mM EDTA (BSA-precoated plates), 30 min RT (15 C, uncoated for FOXO1/3/4/6 comparison); FAM-EMSA: 20 mM Tris pH 7.5, 100; conditions: protein: recombinant; tags: N-terminal GST; His (GST-His-purified); blunt
T1 sequence (O43524 156-269): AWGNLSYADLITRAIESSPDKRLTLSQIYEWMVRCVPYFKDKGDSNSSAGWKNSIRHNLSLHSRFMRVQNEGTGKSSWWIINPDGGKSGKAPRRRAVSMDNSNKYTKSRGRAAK

FOXO3-DBD [3] = biological target: T1, FOXO3-DBD; experiment: EMSA; 1 uM protein, 100 nM DNA; FPA: 200 mM Tris pH 7.5, 100 mM NaCl, 1 mM EDTA (BSA-precoated plates), 30 min RT (15 C, uncoated for FOXO1/3/4/6 comparison); FAM-EMSA: 20 mM Tris pH 7.5, 100; conditions: protein: recombinant; tags: N-terminal GST; His (GST-His-purified); blunt

FOXO3-DBD (Homo sapiens, UniProt O43524), sequence (O43524 156-269): as above

CC1(C)[C@@H](OC(=O)CCC(=O)O)CC[C@]2(C)[C@H]3C(=O)C=C4[C@@H]5C[C@@](C)(C(=O)O)CC[C@]5(C)CC[C@@]4(C)[C@]3(C)CC[C@@H]12 [CBX, Carbenoxolone]
Ki (FOXO3-DBD [1]): 19 µM
competitive fluorescence polarization (displacement of IRE-FAM oligonucleotide), (FOXO4-DBD): CBX binds in addition to the FOXO3-DBD, also the FOXO1-DBD, the FOXO4-DBD, as well as the FOXO6-DBD
competitive fluorescence polarization (displacement of IRE-FAM oligonucleotide), (FOXO6-DBD): CBX binds in addition to the FOXO3-DBD, also the FOXO1-DBD, the FOXO4-DBD, as well as the FOXO6-DBD

B1: IRE-FAM (dsDNA)
DNA 1: CTATCAAAACAACGC
DNA 2: GCGTTGTTTTGATAG
Kd (FOXO3-DBD [2]): 0.0534 µM

B2: FoxP3-FAM (dsDNA)
DNA 1: AGCAAAGTTGTTTTTGATAATG
DNA 2: CATTATCAAAAACAACTTTGCT
binding result (FOXO3-DBD [3]): binds
